A short description of series [1]: Pd(0) Larock indole macrocyclisation (aryl C-Br + TES-alkyne); Pd(OAc)2 0.5 eq, tBu3P·HBF4 1.0 eq, DIPEA 10 eq for 54; 32 by previously reported procedure. The following applies: the molecule shown is the open-chain precursor, 110.0 °C.
A short description of series [2]: Pd(0) Larock indole macrocyclisation (aryl C-Br + TES-alkyne, ArNHAc; forms Trp C3a-C3 and N1-C2 bonds); Pd(OAc)2 0.5 eq, tBu3P·HBF4 1.0 eq, DIPEA 10 eq. The following applies: the molecule shown is the open-chain precursor; 16-membered ring; toluene; 20.0 mM; 110.0 °C; 12.0 h; 5 steps.

Take `CC[Si](C#CC[C@H](NC(=O)OC(C)(C)C)C(=O)N[C@@H](C)C(=O)N[C@@H](CC(C)C)C(=O)N[C@@H](Cc1ccc(OC)c(-c2ccc(Br)c(N)c2)c1)C(=O)OC)(CC)CC` [Boc-Pra(TES)-Ala-Leu-Tyr(OMe, 3-(3-NH2-4-Br-phenyl))-OMe]: the ring closure, isolated yield in series [1] (20-membered ring;, 12.0 h) stood at 79%. As to `CC[Si](C#CC[C@H](NC(=O)[C@@H]1CCCN1C(=O)[C@H](Cc1ccc(OC)c(-c2ccc(NC(C)=O)c(Br)c2)c1)NC(=O)OC(C)(C)C)C(=O)OC)(CC)CC` [Boc-Tyr(OMe, 3-(4-NHAc-3-Br-phenyl))-Pro-Pra(TES)-OMe], the ring closure, isolated yield in series [1] (16-membered ring;) came out at 45%. Turning to `CC[Si](C#CC[C@H](NC(=O)[C@@H]1CCCN1C(=O)[C@H](Cc1ccc(F)c(-c2ccc(NC(C)=O)c(Br)c2)c1)NC(=O)OC(C)(C)C)C(=O)OC)(CC)CC` [Boc-Phe(4-F, 3-(4-NHAc-3-Br-phenyl))-Pro-Pra(TES)-OMe], in series [2], the ring closure, yield over several steps turned out to be 31%. Consider `CC[Si](C#CC[C@H](NC(=O)[C@@H]1CCCN1C(=O)[C@H](Cc1cc(F)cc(-c2ccc(NC(C)=O)c(Br)c2)c1)N1C(=O)c2ccccc2C1=O)C(=O)OC)(CC)CC` [Phth-Phe(5-F, 3-(4-NHAc-3-Br-phenyl))-Pro-Pra(TES)-OMe], for which the ring closure, yield over several steps in series [2] is 23%. Same read-out and setting: to `CC[Si](C#CC[C@H](NC(=O)[C@@H]1CCCN1C(=O)[C@H](Cc1ccc(C)c(-c2ccc(NC(C)=O)c(Br)c2)c1)N1C(=O)c2ccccc2C1=O)C(=O)OC)(CC)CC` [Phth-Phe(4-Me, 3-(4-NHAc-3-Br-phenyl))-Pro-Pra(TES)-OMe] belongs 39%. In the case of `CC[Si](C#CC[C@H](NC(=O)[C@@H]1CCCN1C(=O)[C@H](Cc1cccc(-c2ccc(NC(C)=O)c(Br)c2)c1)N1C(=O)c2ccccc2C1=O)C(=O)OC)(CC)CC` [Phth-Phe(3-(4-NHAc-3-Br-phenyl))-Pro-Pra(TES)-OMe], the ring closure, yield over several steps in series [2] is 30%.

The values above are taken from publication PMC13250620.
